Measured values: BigSolDB 2.1

CC1=CC(=O)c2ccccc2C1=O
Details	solubility (mole fraction)
in benzene, 299.44 K	0.109
in benzene, 304.83 K	0.13
in benzene, 309.71 K	0.152
in benzene, 313.92 K	0.174
in benzene, 317.75 K	0.197
in benzene, 321.86 K	0.224
in benzene, 326.75 K	0.262
in benzene, 330.75 K	0.297
in benzene, 334.65 K	0.334
in benzene, 338.96 K	0.379
in ethylbenzene, 302.85 K	0.0976
in ethylbenzene, 309.44 K	0.122
in ethylbenzene, 314.77 K	0.146
in ethylbenzene, 319.53 K	0.173
in ethylbenzene, 323.75 K	0.199
in ethylbenzene, 327.93 K	0.228
in ethylbenzene, 331.75 K	0.26
in ethylbenzene, 335.44 K	0.297
in ethylbenzene, 339.42 K	0.342
in ethylbenzene, 343.86 K	0.396
in m-xylene, 301.65 K	0.127
in m-xylene, 307.74 K	0.151
in m-xylene, 312.76 K	0.176
in m-xylene, 317.36 K	0.202
in m-xylene, 321.64 K	0.23
in m-xylene, 325.94 K	0.258
in m-xylene, 329.73 K	0.288
in m-xylene, 333.64 K	0.323
in m-xylene, 337.61 K	0.364
in m-xylene, 341.55 K	0.411
in o-xylene, 302.95 K	0.14
in o-xylene, 309.24 K	0.169
in o-xylene, 314.25 K	0.194
in o-xylene, 318.34 K	0.219
in o-xylene, 322.45 K	0.245
in o-xylene, 326.77 K	0.274
in o-xylene, 330.54 K	0.305
in o-xylene, 334.23 K	0.34
in o-xylene, 338.32 K	0.383
in o-xylene, 342.43 K	0.432
in p-xylene, 302.5 K	0.129
in p-xylene, 309.53 K	0.158
in p-xylene, 314.64 K	0.184
in p-xylene, 318.96 K	0.21
in p-xylene, 323.35 K	0.239
in p-xylene, 327.68 K	0.269
in p-xylene, 332.02 K	0.304
in p-xylene, 335.89 K	0.344
in p-xylene, 340.1 K	0.39
in p-xylene, 344.24 K	0.44
in toluene, 303.44 K	0.119
in toluene, 308.84 K	0.143
in toluene, 313.63 K	0.166
in toluene, 317.65 K	0.189
in toluene, 321.85 K	0.216
in toluene, 325.99 K	0.246
in toluene, 330.04 K	0.277
in toluene, 333.86 K	0.311
in toluene, 337.8 K	0.351
in toluene, 342.59 K	0.404
